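The compound was tested at five concentrations on cells cultured in 96-well plates, with a 48-hour exposure period. GI50 = concentration required for 50% inhibition of growth.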 The source made the active and inactive calls. Rule as the data show it: active = GI50 up to about 1.1 µM and inactive = higher.
Tests used:
Test in all cases: NCI tumour cell line growth inhibition, 48 h
OVCAR-8 = test system: OVCAR-8
SK-MEL-28 = test system: SK-MEL-28
HCT-116 = test system: HCT-116
A498 = test system: A498
KM12 = test system: KM12
EKVX = test system: EKVX
MDA-MB-435 = test system: MDA-MB-435
SNB-19 = test system: SNB-19
DU-145 = test system: DU-145
MCF7 = test system: MCF7
SF-268 = test system: SF-268
CAKI-1 = test system: CAKI-1
SN12C = test system: SN12C
IGROV-1 = test system: IGROV-1
SK-MEL-2 = test system: SK-MEL-2
LOX IMVI = test system: LOX IMVI
HCC 2998 = test system: HCC 2998
TK-10 = test system: TK-10
SNB-75 = test system: SNB-75

Structure (SMILES)	GI50 (OVCAR-8)	GI50 (SK-MEL-28)	GI50 (HCT-116)	GI50 (A498)	GI50 (KM12)	GI50 (EKVX)	GI50 (MDA-MB-435)	GI50 (SNB-19)	GI50 (DU-145)	GI50 (MCF7)	GI50 (SF-268)	GI50 (CAKI-1)	GI50 (SN12C)	GI50 (IGROV-1)	GI50 (SK-MEL-2)	GI50 (LOX IMVI)	GI50 (HCC 2998)	GI50 (TK-10)	GI50 (SNB-75)
CCOc1cccc(-c2cc(O)c3cc4c(cc3n2)OCO4)c1	0.265 µM (active)	1.66 µM (inactive)	0.0942 µM (active)	78.9 µM (inactive)	0.267 µM (active)	10.5 µM (inactive)	0.0164 µM (active)	0.321 µM (active)	0.335 µM (active)	0.673 µM (active)	0.466 µM (active)	0.2 µM (active)	0.191 µM (active)	0.548 µM (active)	0.191 µM (active)	0.233 µM (active)	0.239 µM (active)	0.421 µM (active)	0.0948 µM (active)
O=C(O)c1[nH]c2c([N+](=O)[O-])cc([N+](=O)[O-])cc2c1C(=O)O	> 100 µM (inactive)	> 100 µM (inactive)	> 100 µM (inactive)	> 100 µM (inactive)	> 100 µM (inactive)	> 100 µM (inactive)	52.1 µM (inactive)	> 100 µM (inactive)	> 100 µM (inactive)	> 100 µM (inactive)	> 100 µM (inactive)	> 100 µM (inactive)	> 100 µM (inactive)	> 100 µM (inactive)	> 100 µM (inactive)	> 100 µM (inactive)	> 100 µM (inactive)	> 100 µM (inactive)	> 100 µM (inactive)
CCOC(=O)c1ccc(Nc2nc3ccccc3n3cccc23)cc1	47.8 µM (inactive)	88.1 µM (inactive)	> 100 µM (inactive)	46 µM (inactive)	28.1 µM (inactive)	31.3 µM (inactive)	3.27 µM (inactive)	52.5 µM (inactive)	86.1 µM (inactive)	32 µM (inactive)	35.7 µM (inactive)	> 100 µM (inactive)	12.8 µM (inactive)	46.6 µM (inactive)	34.6 µM (inactive)	50.2 µM (inactive)	35 µM (inactive)	34.8 µM (inactive)	22.2 µM (inactive)
O=C(C[n+]1ccc2ccccc2c1)c1ccc2ccc3ccccc3c2c1	3.21 µM (inactive)	2.12 µM (inactive)	0.959 µM (active)	4.94 µM (inactive)	1.33 µM (inactive)	6.27 µM (inactive)	0.841 µM (active)	2.6 µM (inactive)	6.19 µM (inactive)	2.39 µM (inactive)	4.52 µM (inactive)	4.9 µM (inactive)	1.91 µM (inactive)	2.23 µM (inactive)	4.56 µM (inactive)	1.08 µM (active)	1.66 µM (inactive)	1.4 µM (inactive)	5.85 µM (inactive)
Cn1c(=O)c2c(nc3n2CCCC(=O)N3CC(O)CCl)n(C)c1=O (stereo unspecified)	> 100 µM (inactive)	> 100 µM (inactive)	> 100 µM (inactive)	> 100 µM (inactive)	> 100 µM (inactive)	> 100 µM (inactive)	> 100 µM (inactive)	> 100 µM (inactive)	> 100 µM (inactive)	> 100 µM (inactive)	> 100 µM (inactive)	> 100 µM (inactive)	> 100 µM (inactive)	> 100 µM (inactive)	> 100 µM (inactive)	> 100 µM (inactive)	> 100 µM (inactive)	> 100 µM (inactive)	> 100 µM (inactive)
C#C/C=C/CC1OC(C(Br)CC)CC(Br)C2CC1O2 (stereo unspecified)	61.1 µM (inactive)	42.1 µM (inactive)	30.6 µM (inactive)	> 100 µM (inactive)	60.5 µM (inactive)	40.6 µM (inactive)	86.5 µM (inactive)	> 100 µM (inactive)	> 100 µM (inactive)	40.2 µM (inactive)	> 100 µM (inactive)	> 100 µM (inactive)	63.7 µM (inactive)	3.25 µM (inactive)	> 100 µM (inactive)	1.71 µM (inactive)	56 µM (inactive)	> 100 µM (inactive)	52.1 µM (inactive)
CCOC(=O)c1ccc(NC(=O)O/N=C(/Cl)C(C)C)cc1	13.9 µM (inactive)	16.2 µM (inactive)	8.05 µM (inactive)	14.7 µM (inactive)	18.3 µM (inactive)	14.9 µM (inactive)	16 µM (inactive)	24 µM (inactive)	28.1 µM (inactive)	1.98 µM (inactive)	16.5 µM (inactive)	4.63 µM (inactive)	19.9 µM (inactive)	19.4 µM (inactive)	15.1 µM (inactive)	4.95 µM (inactive)	16.6 µM (inactive)	16.4 µM (inactive)	12.9 µM (inactive)
CN(C)CCCNC(=O)c1cc(NC(=O)c2cc(NC(=O)CCCn3c4ccccc4c4ccccc43)cn2C)cn1C	22.8 µM (inactive)	21.6 µM (inactive)	3.27 µM (inactive)	19.3 µM (inactive)	6.28 µM (inactive)	15.3 µM (inactive)	9.29 µM (inactive)	10.5 µM (inactive)	17.9 µM (inactive)	5.89 µM (inactive)	13.5 µM (inactive)	19.1 µM (inactive)	14.3 µM (inactive)	26.5 µM (inactive)	24.8 µM (inactive)	6.59 µM (inactive)	5.52 µM (inactive)	12.4 µM (inactive)	14.4 µM (inactive)
O=C(/C=C1\N=C(c2ccccc2)N(c2nc3c(Cl)cc(Cl)cc3s2)C1=O)/C=C/c1ccccc1	> 100 µM (inactive)	> 100 µM (inactive)	97.5 µM (inactive)	67.5 µM (inactive)	> 100 µM (inactive)	> 100 µM (inactive)	54.3 µM (inactive)	> 100 µM (inactive)	> 100 µM (inactive)	63 µM (inactive)	> 100 µM (inactive)	> 100 µM (inactive)	> 100 µM (inactive)	> 100 µM (inactive)	> 100 µM (inactive)	> 100 µM (inactive)	> 100 µM (inactive)	> 100 µM (inactive)	36.5 µM (inactive)
CC(=O)OCC1OC(N2C(=O)/C(=C\c3ccc(Cl)cc3)C(N)=Nc3ccccc32)C(OC(C)=O)C(OC(C)=O)C1OC(C)=O (stereo unspecified)	13.8 µM (inactive)	26.1 µM (inactive)	16.6 µM (inactive)	44.6 µM (inactive)	14.9 µM (inactive)	29.2 µM (inactive)	16 µM (inactive)	37.8 µM (inactive)	28.8 µM (inactive)	11.8 µM (inactive)	18.2 µM (inactive)	37.3 µM (inactive)	29.2 µM (inactive)	19.6 µM (inactive)	25.4 µM (inactive)	17.1 µM (inactive)	16.1 µM (inactive)	28.1 µM (inactive)	19.1 µM (inactive)
CC1(C)CC[C@]2(C(=O)O)CC[C@]3(C)C(=CCC4=C5C[C@H](O)[C@H](O)[C@@](C)(CO)[C@@]5(C)CC[C@]43C)[C@@H]2C1	44.3 µM (inactive)	> 100 µM (inactive)	31.3 µM (inactive)	17.8 µM (inactive)	38.9 µM (inactive)	51.5 µM (inactive)	62.1 µM (inactive)	16 µM (inactive)	33.4 µM (inactive)	44.6 µM (inactive)	51.4 µM (inactive)	28.1 µM (inactive)	39.6 µM (inactive)	36.9 µM (inactive)	80.5 µM (inactive)	35.7 µM (inactive)	24 µM (inactive)	53.6 µM (inactive)	26.7 µM (inactive)
COc1ccc2c(c1)OC(c1cccnc1)C(c1ccccc1)C2=O (stereo unspecified)	80.2 µM (inactive)	> 100 µM (inactive)	97.5 µM (inactive)	> 100 µM (inactive)	> 100 µM (inactive)	> 100 µM (inactive)	> 100 µM (inactive)	66.7 µM (inactive)	> 100 µM (inactive)	> 100 µM (inactive)	61 µM (inactive)	> 100 µM (inactive)	> 100 µM (inactive)	> 100 µM (inactive)	> 100 µM (inactive)	> 100 µM (inactive)	> 100 µM (inactive)	> 100 µM (inactive)	> 100 µM (inactive)
CCCCON1C[C@H](OC(C)=O)C(OC(C)=O)[C@H](OC(C)=O)C1 (stereo partly specified)	> 100 µM (inactive)	> 100 µM (inactive)	> 100 µM (inactive)	> 100 µM (inactive)	> 100 µM (inactive)	> 100 µM (inactive)	> 100 µM (inactive)	> 100 µM (inactive)	> 100 µM (inactive)	> 100 µM (inactive)	> 100 µM (inactive)	> 100 µM (inactive)	> 100 µM (inactive)	> 100 µM (inactive)	> 100 µM (inactive)	> 100 µM (inactive)	> 100 µM (inactive)	> 100 µM (inactive)	> 100 µM (inactive)
CC1CCCN(CP(=O)(c2ccccc2)c2ccccc2)C1 (stereo unspecified)	> 100 µM (inactive)	> 100 µM (inactive)	93.8 µM (inactive)	> 100 µM (inactive)	> 100 µM (inactive)	> 100 µM (inactive)	> 100 µM (inactive)	> 100 µM (inactive)	> 100 µM (inactive)	> 100 µM (inactive)	> 100 µM (inactive)	> 100 µM (inactive)	> 100 µM (inactive)	> 100 µM (inactive)	> 100 µM (inactive)	> 100 µM (inactive)	52.5 µM (inactive)	> 100 µM (inactive)	> 100 µM (inactive)

Source: ChEMBL document CHEMBL1201862, “PubChem BioAssay data set” (2004)
